Assays:
[1] = tested on: human breast, ovarian and liver cancer; conditions: humans; cited from earlier work
[2] = particularly in relation to the liver and kidneys; cited from earlier work
L1210 cell line = assay: Inhibition of growth of the leukaemia cell line L1210 in cell culture; type: cell-based; conditions: Mus musculus
Source text: The test may be similar to that described in UK Patent Specification No. 2065653B; and […]

[3] = In vivo stability to cleavage of the central amide linkage of the dipeptide (i.p., mice); set-up: species or system mouse (male C57/DBA2 F1 hybrid); conditions: 100 mg/kg i.p., 1 hour; for Stability (cleavage of the central amide linkage of the dipeptide): based on dipeptide and cleavage product found in plasma and liver
Experimental: In vivo tests in mice at a dosage of 100 mg/kg with various compounds according to the invention have shown a substantial lack of cleavage of the central amide linkage of the dipeptide as assessed by measurement of the amount of the cleavage product as a percentage of the total of parent compound and cleavage product present in the liver or plasma of a mouse sacrificed 1 hour after intraperitoneal administration of the dipeptide, i.e. cleavage was within the limit of experimental detection which is about 5%. Although a minor degree of cleavage of this amide linkage of the quinazoline is acceptable when it is used in practice, a level of cleavage on administration in vivo of less than 10% is preferred, with no more than about 5% being desirable, especially 2% or 1% or less.
The four compounds were also tested for in vivo stability to cleavage of the central amide linkage of the dipeptide. This test comprised injecting the compound intraperitoneally into male C57/DBA2 (F1 hybrid) mice at a standard dosage rate of 100 mg/kg, sacrificing the animals after 1 hour, removing the plasma, liver and kidneys, homogenising these individually in nine times the volume of 0.1 M Tris HCl at pH 10, precipitating the protein and analysing the product in 0.05 M NaHCO3 by hplc on a Sperisorb C-6 column eluting with acetonitrile/sodium acetate of pH 5.0. UV measurements at 280 and 313 nm were used to detect the dipeptide and the breakdown product of cleavage at the central amide bond of the dipeptide, i.e. the L-glutamic acid derivative or D-glutamic acid derivative. Identification of the parent compound and any breakdown product was effected by Rt comparisons against standard samples of these compounds which have been subjected to the same treatment as the liver, kidney and plasma samples.
The results obtained are shown in the Table, the identification of a compound which is "not cleaved" as compared with a compound which is "cleaved" being made on the basis of the amount of the dipeptide and its cleavage product found in the plasma and the liver.

MCF-7 cell line = assay: Inhibition of growth of the human breast cancer cell line MCF-7 in cell culture; type: cell-based; conditions: MCF7, MCF-7 cell culture, read-out: IC50 against the MCF-7 cell line
Source text: The test may be similar to that described by Lippman et al (Cancer Res., 1976, 36, 4595).

| SMILES | activity against human breast, ovarian and liver cancer [1] | toxicity in humans [2] | IC50 (L1210 cell line) [nM] | Stability (cleavage of the central amide linkage of the dipeptide) [3] | IC50 (MCF-7 cell line) [nM] | location of the remaining part of the parent dipeptide which was detected [3] | cleavage product in the liver, as a percentage of the total drug administered ([3]; liver, typical experiment) | parent dipeptide present in the liver, as a percentage of the total drug administered ([3]; liver, typical experiment) [%] | cleavage product accompanying the parent dipeptide in the plasma [3] |
| --- | --- | --- | --- | --- | --- | --- | --- | --- | --- |
| C#CCN(Cc1ccc2nc(N)[nH]c(=O)c2c1)c1ccc(C(=O)N[C@@H](CCC(=O)O)C(=O)O)cc1 [CB3717] | promising activity against human breast, ovarian and liver cancer | shows symptoms of toxicity in humans, particularly in relation to the liver and kidneys |  |  |  |  |  |  |  |
| C#CCN(Cc1ccc2nc(C)[nH]c(=O)c2c1)c1ccc(C(=O)N[C@H](CCC(=O)N[C@@H](CCC(=O)O)C(=O)O)C(=O)O)cc1 [D-glu-L-glu] |  |  | 3400 | cleaved |  |  |  |  |  |
| C#CCN(Cc1ccc2nc(C)nc(O)c2c1)c1ccc(C(=O)N[C@@H](CCC(=O)N[C@H](CCC(=O)O)C(=O)O)C(=O)O)cc1 [Example 1, N-p-[N-(3,4-Dihydro-2-methyl-4-oxoquinazolin-6-ylmethyl)-N-(prop-2-ynyl)amino]benzoyl-L-γ-glutamyl-D-glutamic acid] |  |  | 180 | not cleaved | 300 | found mostly in the plasma | no cleavage product | 27±2 | no cleavage product |
| C#CCN(Cc1ccc2nc(C)nc(O)c2c1)c1ccc(C(=O)N[C@H](CCC(=O)N[C@H](CCC(=O)O)C(=O)O)C(=O)O)cc1 [Example 10, N-p-[N-(3,4-dihydro-2-methyl-4-oxoquinazolin-6-ylmethyl)-N-(prop-2-ynyl)amino]benzoyl-D-γ-glutamyl-D-glutamic acid] |  |  | 1300 | not cleaved |  |  |  |  |  |
| C#CCN(Cc1ccc2nc(C)nc(O)c2c1)c1ccc(C(=O)N[C@@H](CCC(=O)N[C@@H](CCC(=O)O)C(=O)O)C(=O)O)cc1 [L-glu-L-glu] |  |  | 100 | cleaved |  | found mostly in the plasma |  | 1.6±0.8 | a significant amount of the cleavage product |

Source: US5444061A, “Anti-cancer compounds” (British Technology Group Limited, priority 1991, dated 1995)
